Measured values: the NIST ThermoML archive (doi:10.1016/j.jct.2016.04.006)

What was measured:
[1] = mn = molality of the nth substance listed, in mol/kg; settings: 100 kPa, Liquid, Capillary tube (Ostwald / Ubbelohde) method
[2] = 100 kPa, Liquid, Capillary tube (Ostwald / Ubbelohde) method

OC[C@H]1O[C@@H](O[C@H]2[C@H](O)[C@@H](O)[C@H](O)O[C@@H]2CO)[C@H](O)[C@@H](O)[C@@H]1O [D-cellobiose] + O
viscosity [mPa·s], [1]
Settings | m1 = 0.0529 | m1 = 0.0639 | m1 = 0.0903 | m1 = 0.1292 | m1 = 0.1479 | m1 = 0.1603
288.15 K | 1.193 | 1.203 | 1.231 | 1.269 | 1.286 | 1.3
298.15 K | 0.928 | 0.941 | 0.961 | 0.99 | 1.001 | 1.011
308.15 K | 0.748 | 0.757 | 0.771 | 0.796 | 0.807 | 0.813
318.15 K | 0.621 | 0.625 | 0.64 | 0.657 | 0.664 | 0.67

NCC(=O)O [2-aminoacetic acid] + O
viscosity [mPa·s], [1]
Settings | m1 = 0.05 | m1 = 0.15 | m1 = 0.25 | m1 = 0.35 | m1 = 0.5
288.15 K | 1.146 | 1.16 | 1.175 | 1.19 | 1.213
298.15 K | 0.896 | 0.909 | 0.921 | 0.934 | 0.953
308.15 K | 0.723 | 0.735 | 0.745 | 0.755 | 0.77
318.15 K | 0.603 | 0.609 | 0.618 | 0.626 | 0.639

O [water]
[2]
Settings | viscosity [mPa·s]
288.15 K | 1.138
298.15 K | 0.89
308.15 K | 0.719
318.15 K | 0.596

OC[C@@H](O)[C@@H](O)[C@H](O)[C@H](O)CO [D-mannitol] + O
viscosity [mPa·s], [1]
Settings | m1 = 0.0578 | m1 = 0.0701 | m1 = 0.0837 | m1 = 0.12 | m1 = 0.1409 | m1 = 0.1659 | m1 = 0.1943
288.15 K | 1.181 | 1.19 | 1.199 | 1.224 | 1.236 | 1.254 | 1.278
298.15 K | 0.919 | 0.928 | 0.935 | 0.949 | 0.959 | 0.974 | 0.986
308.15 K | 0.741 | 0.746 | 0.753 | 0.763 | 0.771 | 0.779 | 0.791
318.15 K | 0.611 | 0.617 | 0.62 | 0.629 | 0.636 | 0.644 | 0.651

C[C@@H](O)[C@@H](O)[C@H](O)[C@H](O)C=O [6-deoxy-D-mannose] + O
viscosity [mPa·s], [1]
Settings | m1 = 0.0395 | m1 = 0.0753 | m1 = 0.1036 | m1 = 0.1173 | m1 = 0.1403
288.15 K | 1.164 | 1.183 | 1.2 | 1.208 | 1.22
298.15 K | 0.91 | 0.922 | 0.933 | 0.945 | 0.951
308.15 K | 0.732 | 0.744 | 0.753 | 0.759 | 0.766
318.15 K | 0.607 | 0.616 | 0.623 | 0.626 | 0.633

CO[C@H]1O[C@H](CO)[C@@H](O)[C@H](O)[C@@H]1O [α-methyl mannopyranoside] + O
viscosity [mPa·s], [1]
Settings | m1 = 0.0569 | m1 = 0.0853 | m1 = 0.1142 | m1 = 0.1318 | m1 = 0.1443
288.15 K | 1.172 | 1.188 | 1.208 | 1.217 | 1.229
298.15 K | 0.913 | 0.925 | 0.942 | 0.95 | 0.96
308.15 K | 0.742 | 0.75 | 0.756 | 0.765 | 0.77
318.15 K | 0.61 | 0.619 | 0.625 | 0.633 | 0.636

O=C[C@H](O)[C@@H](O)[C@H](O)[C@H](O)CO [D-glucose] + O
viscosity [mPa·s], [1]
Settings | m1 = 0.0523 | m1 = 0.0745 | m1 = 0.0885 | m1 = 0.1034 | m1 = 0.1197 | m1 = 0.142
288.15 K | – | 1.183 | 1.185 | 1.192 | 1.205 | 1.219
298.15 K | 0.911 | 0.921 | 0.926 | 0.933 | 0.938 | 0.948
308.15 K | 0.735 | 0.743 | 0.747 | 0.751 | 0.756 | 0.762
318.15 K | 0.609 | 0.614 | 0.618 | 0.621 | 0.625 | 0.63

O=C[C@@H](O)[C@@H](O)[C@H](O)[C@H](O)CO [D-mannose] + O
viscosity [mPa·s], [1]
Settings | m1 = 0.0607 | m1 = 0.0751 | m1 = 0.0977 | m1 = 0.1215 | m1 = 0.134 | m1 = 0.1525 | m1 = 0.1822
288.15 K | – | 1.183 | 1.195 | 1.207 | 1.216 | 1.224 | 1.243
298.15 K | – | 0.921 | 0.931 | 0.94 | 0.945 | 0.954 | 0.966
308.15 K | 0.739 | 0.744 | 0.749 | 0.757 | 0.76 | 0.767 | 0.776
318.15 K | 0.61 | 0.614 | 0.62 | 0.625 | 0.629 | 0.635 | 0.64
